# According to article PMC6049504 (RNA, 2018):
# Key:
# Assay in all cases: biochemical
# [1] = target: TkTrm10 (Thermococcus kodakarensis, UniProt Q5JD38)
# [2] = target: TkTrm10 (Thermococcus kodakarensis, UniProt Q5JD38, D206N/D245N)
# [3] = target: TkTrm10 (Thermococcus kodakarensis, UniProt Q5JD38, D206A/D245A)
# [4] = target: TkTrm10 (Thermococcus kodakarensis, UniProt Q5JD38, D206L)
# TkTrm10 (Thermococcus kodakarensis, UniProt Q5JD38, D206L), sequence (Q5JD38 whole entry D206L): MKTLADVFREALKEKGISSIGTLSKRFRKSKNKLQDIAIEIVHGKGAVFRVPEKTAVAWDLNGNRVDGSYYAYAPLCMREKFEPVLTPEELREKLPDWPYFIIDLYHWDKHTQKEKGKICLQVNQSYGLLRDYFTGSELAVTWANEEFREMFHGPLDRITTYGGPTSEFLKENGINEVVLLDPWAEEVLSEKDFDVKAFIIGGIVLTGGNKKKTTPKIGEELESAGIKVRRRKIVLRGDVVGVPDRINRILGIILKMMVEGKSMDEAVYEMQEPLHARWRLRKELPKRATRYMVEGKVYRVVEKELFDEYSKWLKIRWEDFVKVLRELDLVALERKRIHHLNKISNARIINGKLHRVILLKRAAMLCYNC
# TkTrm10 (Thermococcus kodakarensis, UniProt Q5JD38, D206A/D245A), sequence (Q5JD38 whole entry D206A/D245A): as the sequence (Q5JD38 whole entry D206L) above, with L206A, D245A counted along it
# TkTrm10 (Thermococcus kodakarensis, UniProt Q5JD38, D206N/D245N), sequence (Q5JD38 whole entry D206N/D245N): as the sequence (Q5JD38 whole entry D206L) above, with L206N, D245N counted along it
# TkTrm10 (Thermococcus kodakarensis, UniProt Q5JD38), sequence (Q5JD38 whole entry): as the sequence (Q5JD38 whole entry D206L) above, with L206D counted along it
smiles,measurement,setting,value
C[S+](CC[C@H](N)C(=O)O)C[C@H]1O[C@@H](n2cnc3c(N)ncnc32)[C@H](O)[C@@H]1O (stereo partly shown) [SAM],Kd,[1],9.4 ± 1.2 µM
same,Kd,[2],19.3 ± 3.4 µM
same,Kd,[3],20.4 ± 2.9 µM
same,Kd,[4],68 ± 19 µM
